Source: ChEMBL document CHEMBL5154882, “Discovery of 4-Hydroxyquinazoline Derivatives as Small Molecular BET/PARP1 Inhibitors That Induce Defective Homologous Recombination and Lead to Synthetic Lethality for Triple-Negative Breast Cancer Therapy” (J Med Chem, 2022)
Calls of active or inactive are those of the source. The calls are words filed in the database; no cut-off is given here.

Assays:
MDA-MB-468 [1] = assay: Antiproliferative activity against human MDA-MB-468 cells assessed as reduction in cell viability incubated for 72 hrs by MTT assay; assay type: functional, cell-based; settings: MDA-MB-468, 72 h
MDA-MB-468 [2] = assay: Cell cycle arrest in human MDA-MB-468 cells assessed as accumulation at G0/G1 phase at 5 uM incubated for 72 hrs by propidium iodide staining-based flow cytometry analysis (reference value: 61.4%); assay type: functional
MDA-MB-468 [3] = assay: Cell cycle arrest in human MDA-MB-468 cells assessed as accumulation at G0/G1 phase at 10 uM incubated for 72 hrs by propidium iodide staining-based flow cytometry analysis (reference value: 61.4%); assay type: functional
MDA-MB-468 [4] = assay: Cell cycle arrest in human MDA-MB-468 cells assessed as accumulation at G0/G1 phase at 20 uM incubated for 72 hrs by propidium iodide staining-based flow cytometry analysis (reference value: 61.4%); assay type: functional
MDA-MB-468 [5] = assay: Cell cycle arrest in human MDA-MB-468 cells assessed as accumulation at S phase at 10 uM incubated for 72 hrs by propidium iodide staining-based flow cytometry analysis (reference value: 21.1%); assay type: functional
MDA-MB-468 [6] = assay: Cell cycle arrest in human MDA-MB-468 cells assessed as accumulation at G2/M phase at 5 uM incubated for 72 hrs by propidium iodide staining-based flow cytometry analysis (reference value: 16.1%); assay type: functional
MDA-MB-468 [7] = assay: Induction of apoptosis in human MDA-MB-468 cells assessed as early apoptotic cells at 5 uM incubated for 72 hrs by annexin V/propidium iodide staining-based flow cytometry analysis (reference value: 4.07%); assay type: functional
MDA-MB-468 [8] = assay: Induction of apoptosis in human MDA-MB-468 cells assessed as early apoptotic cells at 20 uM incubated for 72 hrs by annexin V/propidium iodide staining-based flow cytometry analysis (reference value: 4.07%); assay type: functional
MDA-MB-468 [9] = assay: Induction of apoptosis in human MDA-MB-468 cells assessed as late apoptotic cells at 5 uM incubated for 72 hrs by annexin V/propidium iodide staining-based flow cytometry analysis (reference value: 1.34%); assay type: functional
MDA-MB-468 [10] = assay: Induction of apoptosis in human MDA-MB-468 cells assessed as up-regulation of Bax protein level at 20 uM incubated for 72 hrs by Western blot analysis; assay type: functional, cell-based
MDA-MB-468 [11] = assay: Induction of apoptosis in human MDA-MB-468 cells assessed as up-regulation of cleaved caspase 3 protein level at 20 uM incubated for 72 hrs by Western blot analysis; assay type: functional, cell-based
MDA-MB-468 [12] = assay: Inhibition of clone formation in human MDA-MB-468 cells measured after 10 days by crystal violet staining based analysis; assay type: functional, cell-based; settings: dose 5-20 µM, time 10.0 day, DDE = dose-dependent effect
MDA-MB-468 [13] = assay: Inhibition of homologous recombinant repair in human MDA-MB-468 cells assessed as down-regulation of p-RPA32 expression at 5 to 20 uM in by Western blot analysis; assay type: functional, cell-based; settings: dose 5-20 µM
MDA-MB-468 [14] = assay: Inhibition of homologous recombinant repair in human MDA-MB-468 cells assessed as down-regulation of Rad51 expression at 5 to 20 uM by Western blot analysis; assay type: functional, cell-based; settings: dose 5-20 µM, DDE = dose-dependent effect
[15] = Half life in Sprague-Dawley rat at 1 mg/kg, iv; assay type: ADME, organism-based; settings: in vivo
[16] = AUC (0 to infinity) in Sprague-Dawley rat at 1 mg/kg, iv; assay type: ADME, organism-based; parameters: time infinity, dose 1 mg/kg, route iv; settings: in vivo
[17] = Cmax in Sprague-Dawley rat at 10 mg/kg, po; assay type: ADME, organism-based; parameters: dose 10 mg/kg, route po; settings: in vivo
[18] = AUC (0 to infinity) in Sprague-Dawley rat at 10 mg/kg, po; assay type: ADME, organism-based; parameters: time infinity, dose 10 mg/kg, route po; settings: in vivo
[19] = Oral bioavailability in Sprague-Dawley rat at 10 mg/kg; assay type: ADME, organism-based; settings: in vivo
MDA-MB-468 [20] = assay: Antitumor activity against human MDA-MB-468 cells xenografted in BALB/c nude mouse model assessed as tumor growth inhibition at 40 to 80 mg/kg, ig administered daily for 16 days measured every 3 days relative to control; assay type: functional; settings: dose 40-80 mg/kg, time 16 day
[21] = Toxicity in BALB/c nude mouse xenografted with human MDA-MB-468 cells assessed as change in body weight at 40 to 80 mg/kg, ig administered daily for 16 days measured every 3 days; assay type: organism-based; settings: in vivo, po, 384 h, dose 40-80 mg/kg, time 16 day
[22] = Toxicity in BALB/c nude mouse xenografted with human MDA-MB-468 cells assessed as morphological changes in heart at 40 to 80 mg/kg, ig administered daily for 16 days measured every 3 days by hematoxyin-eosin staining based analysis; assay type: organism-based; settings: in vivo, po, 384 h, dose 40-80 mg/kg, time 16 day
[23] = Toxicity in BALB/c nude mouse xenografted with human MDA-MB-468 cells assessed as morphological changes in liver at 80 mg/kg, ig administered daily for 16 days measured every 3 days by hematoxyin-eosin staining based analysis; assay type: organism-based; settings: in vivo, po, 384 h, time 16 day
[24] = Toxicity in BALB/c nude mouse xenografted with human MDA-MB-468 cells assessed as morphological changes in kidney at 80 mg/kg, ig administered daily for 16 days measured every 3 days by hematoxyin-eosin staining based analysis; assay type: organism-based; settings: in vivo, po, 384 h, time 16 day
[25] = Toxicity in BALB/c nude mouse xenografted with human MDA-MB-468 cells assessed as morphological changes in kidney at 40 to 80 mg/kg, ig administered daily for 16 days measured every 3 days by hematoxyin-eosin staining based analysis; assay type: organism-based; settings: in vivo, po, 384 h, dose 40-80 mg/kg, time 16 day
MDA-MB-231 [26] = assay: Antitumor activity against human MDA-MB-231 cells xenografted in BALB/c nude mouse assessed as reduction in CtIp expression at 40 to 80 mg/kg incubated for 30 to 40 mins by immunohistochemical analysis; assay type: functional, organism-based; settings: dose 40-80 mg/kg, time 30-40 min
MDA-MB-231 [27] = assay: Antitumor activity against human MDA-MB-231 cells xenografted in BALB/c nude mouse assessed as reduction in c-Myc expression at 40 to 80 mg/kg incubated for 30 to 40 mins by immunohistochemical analysis; assay type: functional, organism-based; settings: dose 40-80 mg/kg, time 30-40 min
MDA-MB-231 [28] = assay: Antitumor activity against human MDA-MB-231 cells xenografted in BALB/c nude mouse assessed as reduction in PAR expression at 40 to 80 mg/kg incubated for 30 to 40 mins by immunohistochemical analysis; assay type: functional, organism-based; settings: dose 40-80 mg/kg, time 30-40 min
MDA-MB-231 [29] = assay: Antitumor activity against human MDA-MB-231 cells xenografted in BALB/c nude mouse assessed as downregulation of BRD4 downstream protein at 40 mg/kg by Western blot analysis; assay type: functional, organism-based
MDA-MB-231 [30] = assay: Antitumor activity against human MDA-MB-231 cells xenografted in BALB/c nude mouse assessed as downregulation of PAR at 80 mg/kg by Western blot analysis; assay type: functional, organism-based
MDA-MB-231 [31] = assay: Antitumor activity against human MDA-MB-231 cells xenografted in BALB/c nude mouse assessed as downregulation of Rad51 at 80 mg/kg by Western blot analysis; assay type: functional, organism-based
[32] = target: T1, Bromodomain-containing protein 4 (Homo sapiens, UniProt O60885); assay: Inhibition of BRD4 (unknown origin)
[33] = target: T1, Bromodomain-containing protein 4; assay: Inhibition of BRD4 BD2 (unknown origin)
[34] = target: Poly [ADP-ribose] polymerase 1 (Homo sapiens, UniProt P09874); assay: Binding affinity to PARP1 in human MDA-MB-468 cells assessed as increase in thermal stability at 5 uM by cellular thermal shift assay; assay type: cell-based
Chain of Poly [ADP-ribose] polymerase 1 (P09874 whole entry): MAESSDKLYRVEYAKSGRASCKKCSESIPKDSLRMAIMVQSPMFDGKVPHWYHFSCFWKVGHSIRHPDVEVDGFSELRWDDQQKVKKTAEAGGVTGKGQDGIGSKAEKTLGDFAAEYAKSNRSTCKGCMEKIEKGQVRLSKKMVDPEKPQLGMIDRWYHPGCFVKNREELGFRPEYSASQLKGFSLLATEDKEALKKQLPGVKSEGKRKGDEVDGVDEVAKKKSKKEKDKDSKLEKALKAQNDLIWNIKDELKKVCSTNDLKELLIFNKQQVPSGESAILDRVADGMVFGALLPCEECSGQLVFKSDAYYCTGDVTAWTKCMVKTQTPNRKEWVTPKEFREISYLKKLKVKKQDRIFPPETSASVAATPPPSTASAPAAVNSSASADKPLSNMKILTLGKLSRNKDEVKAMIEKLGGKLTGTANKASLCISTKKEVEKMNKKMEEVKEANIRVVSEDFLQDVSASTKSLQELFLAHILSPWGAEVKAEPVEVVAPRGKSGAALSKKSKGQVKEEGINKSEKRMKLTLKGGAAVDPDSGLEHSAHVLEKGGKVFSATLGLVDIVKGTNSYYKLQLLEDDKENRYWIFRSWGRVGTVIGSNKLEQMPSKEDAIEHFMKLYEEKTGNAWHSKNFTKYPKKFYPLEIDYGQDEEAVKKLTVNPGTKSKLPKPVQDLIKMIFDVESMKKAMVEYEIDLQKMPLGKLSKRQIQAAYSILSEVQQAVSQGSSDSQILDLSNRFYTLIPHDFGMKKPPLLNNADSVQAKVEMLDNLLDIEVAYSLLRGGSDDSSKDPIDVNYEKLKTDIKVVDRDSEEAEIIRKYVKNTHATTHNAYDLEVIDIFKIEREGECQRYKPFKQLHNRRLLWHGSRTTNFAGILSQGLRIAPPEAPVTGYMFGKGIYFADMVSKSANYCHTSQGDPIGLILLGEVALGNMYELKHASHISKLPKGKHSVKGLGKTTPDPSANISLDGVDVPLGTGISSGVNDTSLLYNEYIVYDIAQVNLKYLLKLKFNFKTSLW

MDA-MB-468 [35] = assay: Downregulation of PAR expression level in human MDA-MB-468 cells by Western blot analysis; assay type: functional, cell-based; settings: dose 5-20 µM, DDE = dose-dependent effect

COc1cc(OC)c2c(=O)[nH]c(-c3cccc(Cc4n[nH]c(=O)c5ccccc45)c3)nc2c1
IC50 (MDA-MB-468 [1]): 3010 nM
Activity (MDA-MB-468 [2]): 62.3%
Activity (MDA-MB-468 [3]): 63.2%
Activity (MDA-MB-468 [4]): 74.3%
Activity (MDA-MB-468 [5]): 22.8%
Activity (MDA-MB-468 [6]): 16.6%
Activity (MDA-MB-468 [7]): 21.47%
Activity (MDA-MB-468 [8]): 28.26%
Activity (MDA-MB-468 [9]): 6.08%
Activity (MDA-MB-468 [10]): Active
Activity (MDA-MB-468 [11]): Active
inhibition (MDA-MB-468 [12]): Dde
inhibition (MDA-MB-468 [13]): Active
inhibition (MDA-MB-468 [14]): Dde
t1/2 [15]: 3.02 h
AUC(0-inf) [16]: 642 ng·h/mL
Cmax [17]: 242 ng/mL
AUC(0-inf) [18]: 1530 ng·h/mL
bioavailability [19]: 23.8%
TGI (MDA-MB-468 [20]): 68.7%
Activity [21]: Non-Toxic
Activity [22]: Non-Toxic
Activity [23]: Non-Toxic
Activity [24]: Non-Toxic
Activity [25]: Non-Toxic
Activity (MDA-MB-231 [26]): Active
Activity (MDA-MB-231 [27]): Active
Activity (MDA-MB-231 [28]): Active
Activity (MDA-MB-231 [29]): Active
Activity (MDA-MB-231 [30]): Active
Activity (MDA-MB-231 [31]): Active
IC50 [32]: 238 nM
IC50 [33]: 175 nM
Activity [34]: Active
Activity (MDA-MB-468 [35]): Dde
